For one assay, the system named is BEAS-2B cells. Kind of assay: TNFα-stimulated BEAS-2B IL-8 release assay. The format is cell-based. As to conditions: Homo sapiens, IC50 classes, TNF-α 10 ng/ml, 18 h, read-out: TNFα-stimulated BEAS-2B IL-8 release inhibition. The gist of the method:
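BEAS-2B cells at 80-90% confluence were pre-incubated 1 h with p38 inhibitors, then stimulated 18 h at 37 °C with TNF-α (10 ng/ml). Supernatant IL-8 was measured by ELISA. IC50 was taken from sigmoidal variable-slope fits of % inhibition of control release.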

Another assay concerns the target T1, p38alpha (Homo sapiens, UniProt Q16539).
T1 construct: purchased Invitrogen PV3304
The assay is described as follows: P38alpha enzyme inhibition assay (Alphascreen kinase activity assay). It is filed as biochemical. The note with it: IC50 classes; 2 hours preincubation at 25° C., 250 μM ATP; read-out: p38α inhibition. Put shortly:
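p38alpha with 0.3 μg/ml ATF-2 fusion protein in HEPES pH 7.5 buffer (10 mM MgCl2, 2 mM DTT, 1% DMSO); compounds preincubated 2 h at 25° C, then 250 μM ATP added for 1 h at 25° C. Phospho-ATF2 detected by AlphaScreen luminescence with anti-phospho-ATF2 antibody; IC50 from concentration-response curves.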
On the technique in general: In Alpha technology, singlet oxygen from a donor bead excites a nearby acceptor bead.

The subject of assay [1] is Peripheral Blood Mononuclear Cells (PBMCs). The assay is described as follows: LPS-stimulated PBMC TNFα release assay. It is filed as cell-based. The note with it: IC50 classes; human PBMC, LPS 10 ng/ml, 18 h; read-out: LPS-stimulated PBMC TNFα release inhibition. The gist of the method: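 Human PBMCs from healthy donors, adhered 3 h in serum-free RPMI, received compound for 1 h in 1% FBS medium before 10 ng/ml LPS for 18 h. Supernatant TNFα was measured by MSD; IC50 from percentage inhibition of control release, at least three separate experiments.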

Molecules are shown by their SMILES. Where a name gives a salt, the structure may show the parent alone.

T1 sequence (Q16539 whole entry): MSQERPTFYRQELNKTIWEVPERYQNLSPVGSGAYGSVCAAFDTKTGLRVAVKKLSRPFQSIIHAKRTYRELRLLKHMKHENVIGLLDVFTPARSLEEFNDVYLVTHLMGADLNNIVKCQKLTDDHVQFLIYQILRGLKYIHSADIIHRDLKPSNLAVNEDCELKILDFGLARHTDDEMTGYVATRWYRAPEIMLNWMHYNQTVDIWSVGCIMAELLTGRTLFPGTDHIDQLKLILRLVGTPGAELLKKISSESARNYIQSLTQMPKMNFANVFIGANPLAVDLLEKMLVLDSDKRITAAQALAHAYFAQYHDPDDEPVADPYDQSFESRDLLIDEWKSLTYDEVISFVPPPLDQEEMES

Take `CN1CCC[C@@]1(C)c1nnc2ccc(O[C@@H]3CC[C@H](NC(=O)Nc4cc(C(C)(C)C)cc(S(C)(=O)=O)c4)c4ccccc43)cn12` [Example 47, 1-(3-tert-Butyl-5-methanesulfonyl-phenyl)-3-{(1S,4R)-4-[3-((S)-1,2-dimethyl-pyrrolidin-2-yl)-[1,2,4]triazolo[4,3-a]pyridin-6-yloxy]-1,2,3,4-tetrahydro-naphthalen-1-yl}-urea]: the IC50 was < 0.3 nM in the assay with BEAS-2B cells, < 1 nM on p38alpha and < 1 nM in assay [1].
For `COc1c(NC(C)=O)cc(C(C)(C)C)cc1NC(=O)N[C@H]1CC[C@@H](Oc2ccc3nnc([C@]4(C)CCCN4C)n3c2)c2ccccc21` [Example 8, N-[5-tert-Butyl-3-(3-{(1S,4R)-4-[3-((S)-1,2-dimethyl-pyrrolidin-2-yl)-[1,2,4]triazolo[4,3-a]pyridin-6-yloxy]-1,2,3,4-tetrahydro-naphthalen-1-yl}-ureido)-2-methoxy-phenyl]-acetamide], the results for the IC50 (in the assay on BEAS-2B cells; on p38alpha; in assay [1]) were < 0.3 nM, 1 to 10 nM and < 1 nM, respectively.
On to `C[C@H]1CCCCN1c1nnc2ccc(O[C@@H]3CC[C@H](NC(=O)Nc4cc(CN(CCO)CCO)cc(C(C)(C)C)c4)c4ccccc43)cn12` [Example 76, 1-(3-{[Bis-(2-hydroxy-ethyl)-amino]-methyl}-5-tert-butyl-phenyl)-3-{(1S,4R)-4-[3-((S)-2-methyl-piperidin-1-yl)-[1,2,4]triazolo[4,3-a]pyridin-6-yloxy]-1,2,3,4-tetrahydro-naphthalen-1-yl}-urea], for which the IC50 with BEAS-2B cells was > 1 nM; at p38alpha, < 1 nM; in assay [1], 1 to 5 nM.
On to `CN1CCC[C@@]1(C)c1nnc2ccc(O[C@@H]3CC[C@H](NC(=O)Nc4cc(N)cc(C(C)(C)C)c4)c4ccccc43)cn12` [Example 35], for which the IC50 is < 0.3 nM with BEAS-2B cells, < 1 nM at p38alpha and 1 to 5 nM in assay [1].
For `CN1CCC[C@H]1c1nnc2ccc(O[C@@H]3CC[C@H](NC(=O)Nc4cc(NS(=O)(=O)C5CC5)cc(C(C)(C)C)c4)c4ccccc43)cn12` [Example 36, Cyclopropanesulfonic acid [3-tert-butyl-5-(3-{(1S,4R)-4-[3-((S)-1-methyl-pyrrolidin-2-yl)-[1,2,4]triazolo[4,3-a]pyridin-6-yloxy]-1,2,3,4-tetrahydro-naphthalen-1-yl}-ureido)-phenyl]-amide], in that order: 0.3 to 1 nM, < 1 nM and 1 to 5 nM.
Consider `CN1CCOC[C@H]1c1nnc2ccc(O[C@@H]3CC[C@H](NC(=O)Nc4cc(NS(C)(=O)=O)cc(C(C)(C)C)c4)c4ccccc43)cn12` [Example 25, N-[3-tert-Butyl-5-(3-{(1S,4R)-4-[3-((R)-4-methyl-morpholin-3-yl)-[1,2,4]triazolo[4,3-a]pyridin-6-yloxy]-1,2,3,4-tetrahydro-naphthalenyl}-ureido)-phenyl]-methanesulfonamide], for which the IC50 is > 1 nM in the assay with BEAS-2B cells, < 1 nM at p38alpha and > 5 nM in assay [1].
In the case of `COc1c(CO)cc(C(C)(C)C)cc1NC(=O)N[C@H]1CC[C@@H](Oc2ccc3nnc([C@@H]4CCCN4C(C)C)n3c2)c2ccccc21` [Example 6, 1-(5-tert-Butyl-3-hydroxymethyl-2-methoxy-phenyl)-3-{(1S,4R)-4-[3-((S)-1-isopropyl-pyrrolidin-2-yl)-[1,2,4]triazolo[4,3-a]pyridin-6-yloxy]-1,2,3,4-tetrahydro-naphthalen-1-yl}-urea], the IC50 is < 0.3 nM in the assay on BEAS-2B cells, 1 to 10 nM on p38alpha and < 1 nM in assay [1].
Take `CC(=O)OCc1cc(NC(=O)N[C@H]2CC[C@@H](Oc3ccc4nnc([C@]5(C)CCCN5C)n4c3)c3ccccc32)cc(C(C)(C)C)c1` [Example 44, Acetic acid 3-tert-butyl-5-(3-{(1S,4R)-4-[3-((S)-1,2-dimethyl-pyrrolidin-2-yl)-[1,2,4]triazolo[4,3-a]pyridin-6-yloxy]-1,2,3,4-tetrahydro-naphthalen-1-yl}-ureido)-benzyl ester]: the IC50 was < 0.3 nM with BEAS-2B cells, < 1 nM at p38alpha and < 1 nM in assay [1].
Take `COc1c(CO)cc(C(C)(C)C)cc1NC(=O)N[C@H]1CC[C@@H](Oc2ccc3nnc([C@@H]4CCCN4C)n3c2)c2ccccc21` [Example 2, 1-(5-tert-Butyl-3-hydroxymethyl-2-methoxy-phenyl)-3-{(1S,4R)-4-[-3-((S)-1-methyl-pyrrolidin-2-yl)-[1,2,4]triazolo[4,3-a]pyridin-6-yloxy]-1,2,3,4-tetrahydro-naphthalen-1-yl}-urea]: the IC50 in the assay with BEAS-2B cells is < 0.3 nM; at p38alpha it was < 1 nM; in assay [1], < 1 nM.
With `CN1CCC[C@@]1(C)c1nnc2ccc(O[C@@H]3CC[C@H](NC(=O)Nc4cc(NS(C)(=O)=O)cc(C(C)(C)C)c4)c4ccccc43)cn12` [Example 24, N-[3-tert-Butyl-5-(3-{(1S,4R)-4-[3-((S)-1,2-dimethyl-pyrrolidin-2-yl)-[1,2,4]triazolo[4,3-a]pyridin-6-yloxy]-1,2,3,4-tetrahydro-naphthalen-1-yl}-ureido)-phenyl]-methanesulfonamide], the IC50 is < 0.3 nM with BEAS-2B cells, < 1 nM on p38alpha and < 1 nM in assay [1].
Turning to `Cc1c(NC(=O)N[C@H]2CC[C@@H](Oc3ccc4nnc([C@]5(C)CCCN5C)n4c3)c3ccccc32)cc(C(C)(C)C)cc1NS(C)(=O)=O` [Example 56, N-[5-tert-Butyl-3-(3-{(1S,4R)-4-[3-((S)-1,2-dimethyl-pyrrolidin-2-yl)-[1,2,4]triazolo[4,3-a]pyridin-6-yloxy]-1,2,3,4-tetrahydro-naphthalen-1-yl}-ureido)-2-methyl-phenyl]-methanesulfonamide], the results for the IC50 (in the assay with BEAS-2B cells; at p38alpha; in assay [1]) were < 0.3 nM, < 1 nM and < 1 nM, respectively.
In the case of `COc1c(CO)cc(C(C)(C)C)cc1NC(=O)N[C@H]1CC[C@@H](Oc2ccc3nnc(C(C)(C)N(C)C)n3c2)c2ccccc21` [Example 4, 1-(5-tert-Butyl-3-hydroxymethyl-2-methoxy-phenyl)-3-{(1S,4R)-4-[3-(1-dimethylamino-1-methyl-ethyl)-[1,2,4]triazolo[4,3-a]pyridin-6-yloxy]-1,2,3,4-tetrahydro-naphthalen-1-yl}-urea hydrochloride salt], the IC50 with BEAS-2B cells was < 0.3 nM; on p38alpha it was < 1 nM; in assay [1], < 1 nM.
For `CN1CCC[C@H]1c1nnc2ccc(O[C@@H]3CC[C@H](NC(=O)Nc4cc(N5CCOCC5)cc(C(C)(C)C)c4)c4ccccc43)cn12` [Example 58, 1-(3-tert-Butyl-5-morpholin-4-yl-phenyl)-3-{(1S,4R)-4-[3-((S)-1-methyl-pyrrolidin-2-yl)-[1,2,4]triazolo[4,3-a]pyridin-6-yloxy]-1,2,3,4-tetrahydro-naphthalen-1-yl}-urea], the IC50 with BEAS-2B cells is 0.3 to 1 nM; at p38alpha, 1 to 10 nM; in assay [1], > 5 nM.
Take `C[C@H]1CCCCN1c1nnc2ccc(O[C@@H]3CC[C@H](NC(=O)Nc4cc(COCCN(C)C)cc(C(C)(C)C)c4)c4ccccc43)cn12` [Example 70, 1-[3-tert-Butyl-5-(2-dimethylamino-ethoxymethyl)-phenyl]-3-{(1S,4R)-4-[3-((S)-2-methyl-piperidin-1-yl)-[1,2,4]triazolo[4,3-a]pyridin-6-yloxy]-1,2,3,4-tetrahydro-naphthalen-1-yl}-urea]: the IC50 is 0.3 to 1 nM in the assay with BEAS-2B cells, < 1 nM on p38alpha and > 5 nM in assay [1].
For `CN1CCC[C@H]1c1nnc2ccc(O[C@@H]3CC[C@H](NC(=O)Nc4cc(NS(C)(=O)=O)cc(C(C)(C)C)c4)c4ccccc43)cn12` [Example 21], in that order: 0.3 to 1 nM, < 1 nM and 1 to 5 nM.
For the compound `CN1CC[C@H]1c1nnc2ccc(O[C@@H]3CC[C@H](NC(=O)Nc4cc(NS(C)(=O)=O)cc(C(C)(C)C)c4)c4ccccc43)cn12` [Example 63, N-[3-tert-Butyl-5-(3-{(1S,4R)-4-[3-((S)-1-methyl-azetidin-2-yl)-[1,2,4]triazolo[4,3-a]pyridin-6-yloxy]-1,2,3,4-tetrahydro-naphthalen-1-yl}-ureido)-phenyl]-methanesulfonamide], the IC50 in the assay on BEAS-2B cells is > 1 nM; on p38alpha it was 1 to 10 nM; in assay [1], > 5 nM.
Regarding `CN(CCO)Cc1cc(NC(=O)N[C@H]2CC[C@@H](Oc3ccc4nnc([C@]5(C)CCCN5C)n4c3)c3ccccc32)cc(C(C)(C)C)c1` [Example 67, 1-(3-tert-Butyl-5-{[(2-hydroxy-ethyl)-methyl-amino]-methyl}-phenyl)-3-{(1S,4R)-4-[3-((S)-1,2-dimethyl-pyrrolidin-2-yl)-[1,2,4]triazolo[4,3-a]pyridin-6-yloxy]-1,2,3,4-tetrahydro-naphthalen-1-yl}-urea], the IC50 in the assay with BEAS-2B cells is 0.3 to 1 nM; on p38alpha, < 1 nM; in assay [1], > 5 nM.
For `CN(C)Cc1cc(NC(=O)N[C@H]2CC[C@@H](Oc3ccc4nnc([C@]5(C)CCCN5C)n4c3)c3ccccc32)cc(C(C)(C)C)c1` [Example 65, 1-(3-tert-Butyl-5-dimethylaminomethyl-phenyl)-3-{(1S,4R)-4-[3-((S)-1,2-dimethyl-pyrrolidin-2-yl)-[1,2,4]triazolo[4,3-a]pyridin-6-yloxy]-1,2,3,4-tetrahydro-naphthalen-1-yl}-urea], in that order: 0.3 to 1 nM, < 1 nM and 1 to 5 nM.

For the origin of these results see US10100050B2 (CHIESI FARMACEUTICI S.P.A., priority 2015, dated 2018).
